PubChem BioAssay AID1918954 (Molecular Pharmacology Branch, DTP, NCI, 2023)
Values joined by “and” are separate entries in the source; they are usually repeats but may differ in a detail not shown here. Equal values may be shown once.

System: MDA-MB-468 complex spheroids with HUVEC/MSC, viability
Assay: Anticancer human tumor MDA-MB-468 cell line growth inhibition;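 further: spheroids exposed to agents for seven days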;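 on viability, T/C: 100% = DMSO vehicle control viability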
Settings: for viability, T/C: stronger effect = lower value
Procedure, shortened: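 Multicellular complex spheroids of tumor cells with human endothelial cells (HUVEC) and mesenchymal stem cells; the LSD1 inhibitor iadademstat was combined with standard-of-care or investigational agents. Top concentration at or near clinical Cmax, half-log dilutions; final DMSO ≤0.25%.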

[1] = curve of first compound, second compound 0.1 µM
[2] = curve of first compound, second compound 0.316 µM
[3] = curve of first compound, second compound 1 µM
[4] = curve of first compound, second compound 3.16 µM
[5] = curve of first compound, second compound 10 µM
[6] = second compound 0.1 µM, first compound 0.00949 µM
[7] = second compound 0.1 µM, first compound 0.03 µM
[8] = second compound 0.1 µM, first compound 0.0949 µM
[9] = second compound 0.1 µM, first compound 0.3 µM
[10] = second compound 0.1 µM, first compound 0.949 µM
[11] = second compound 0.1 µM, first compound 3 µM
[12] = second compound 0.316 µM, first compound 0.00949 µM
[13] = second compound 0.316 µM, first compound 0.03 µM
[14] = second compound 0.316 µM, first compound 0.0949 µM
[15] = second compound 0.316 µM, first compound 0.3 µM
[16] = second compound 0.316 µM, first compound 0.949 µM
[17] = second compound 0.316 µM, first compound 3 µM
[18] = second compound 1 µM, first compound 0.00949 µM
[19] = second compound 1 µM, first compound 0.03 µM
[20] = second compound 1 µM, first compound 0.0949 µM
[21] = second compound 1 µM, first compound 0.3 µM
[22] = second compound 1 µM, first compound 0.949 µM
[23] = second compound 1 µM, first compound 3 µM
[24] = second compound 3.16 µM, first compound 0.00949 µM
[25] = second compound 3.16 µM, first compound 0.03 µM
[26] = second compound 3.16 µM, first compound 0.0949 µM
[27] = second compound 3.16 µM, first compound 0.3 µM
[28] = second compound 3.16 µM, first compound 0.949 µM
[29] = second compound 3.16 µM, first compound 3 µM
[30] = second compound 10 µM, first compound 0.00949 µM
[31] = second compound 10 µM, first compound 0.03 µM
[32] = second compound 10 µM, first compound 0.0949 µM
[33] = second compound 10 µM, first compound 0.3 µM
[34] = second compound 10 µM, first compound 0.949 µM
[35] = second compound 10 µM, first compound 3 µM

`CC1COCCN1c1cc(C2(S(C)(=N)=O)CC2)nc(-c2ccnc3[nH]ccc23)n1` (stereo not given) + NC1CC1c1ccc(-c2cccc(O)c2)cc1 was tested, and the IC50 [1] was 714 nM, the IC50 [2] was 771 nM and the IC50 [3] was 613 nM. It also gave an IC50 [4] of 603 nM, an IC50 [5] of 189 nM and a viability, T/C (second compound 0.1 µM, first compound 0.0316 µM) of 80%. The viability, T/C (second compound 0.1 µM, first compound 0.1 µM) was 88.2%, the viability, T/C (second compound 0.1 µM, first compound 0.316 µM) was 65.3% and the viability, T/C (second compound 0.1 µM, first compound 1 µM) was 42.1%. It also gave a viability, T/C (second compound 0.1 µM, first compound 3.16 µM) of 22%, a viability, T/C (second compound 0.1 µM, first compound 10 µM) of 9.29% and a viability, T/C (second compound 0.316 µM, first compound 0.0316 µM) of 95.1%. The viability, T/C (second compound 0.316 µM, first compound 0.1 µM) was 104%, the viability, T/C (second compound 0.316 µM, first compound 0.316 µM) was 62.3% and the viability, T/C (second compound 0.316 µM, first compound 1 µM) was 47.7%. The viability, T/C (second compound 0.316 µM, first compound 3.16 µM) was 20.8%, the viability, T/C (second compound 0.316 µM, first compound 10 µM) was 7.91% and the viability, T/C (second compound 1 µM, first compound 0.0316 µM) was 95.3%. It also gave a viability, T/C (second compound 1 µM, first compound 0.1 µM) of 80.5%, a viability, T/C (second compound 1 µM, first compound 0.316 µM) of 69.5% and a viability, T/C (second compound 1 µM, first compound 1 µM) of 36.2%. For the same compound, the viability, T/C (second compound 1 µM, first compound 3.16 µM) was 17.8%, the viability, T/C (second compound 1 µM, first compound 10 µM) was 7.07% and the viability, T/C (second compound 3.16 µM, first compound 0.0316 µM) was 96.4%. It also gave a viability, T/C (second compound 3.16 µM, first compound 0.1 µM) of 101%, a viability, T/C (second compound 3.16 µM, first compound 0.316 µM) of 67.1% and a viability, T/C (second compound 3.16 µM, first compound 1 µM) of 34.6%. It also gave a viability, T/C (second compound 3.16 µM, first compound 3.16 µM) of 17.9%, a viability, T/C (second compound 3.16 µM, first compound 10 µM) of 7.17% and a viability, T/C (second compound 10 µM, first compound 0.0316 µM) of 64.4%. For the same compound, the viability, T/C (second compound 10 µM, first compound 0.1 µM) was 59.7%, the viability, T/C (second compound 10 µM, first compound 0.316 µM) was 42% and the viability, T/C (second compound 10 µM, first compound 1 µM) was 28.8%. The viability, T/C (second compound 10 µM, first compound 3.16 µM) was 15.8% and the viability, T/C (second compound 10 µM, first compound 10 µM) was 6.83%.
In the case of `COc1cc(C2c3cc4c(cc3C(OC3OC5COC(C)OC5C(O)C3O)C3COC(=O)C23)OCO4)cc(OC)c1O` (stereo not given), the viability, T/C (compound 0.00949 µM) is reported as 79% and 92.3%, the viability, T/C (compound 0.03 µM) is reported as 76.9% and 70.8% and the viability, T/C (compound 0.0949 µM) is reported as 48.1% and 27.1%. The viability, T/C (compound 0.3 µM) was 15.1% and 15%, the viability, T/C (compound 0.949 µM) was 14.4% and 10% and the viability, T/C (compound 3 µM) was 10.4% and 4.22%. The IC50 (curve of compound) was 87.8 nM and 52.4 nM.
With `NS(=O)(=O)OCC1CC(n2ccc3c(NC4CCc5ccccc54)ncnc32)CC1O` (stereo not given) the viability, T/C (compound 0.00949 µM) was 67.5% and 55.7%, the viability, T/C (compound 0.03 µM) was 52.1% and 28.4% and the viability, T/C (compound 0.0949 µM) was 19.3% and 11.1%. For the same compound, the viability, T/C (compound 0.3 µM) was 12.9% and 5.49%, the viability, T/C (compound 0.949 µM) was 6.45% and 3.24% and the viability, T/C (compound 3 µM) was 3.84% and 2.08%. The IC50 (curve of compound) was 31.5 nM and 12 nM.
Compound `NS(=O)(=O)OCC1CC(n2ccc3c(NC4CCc5ccccc54)ncnc32)CC1O` (stereo not given) + NC1CCC(NC2CC2c2ccccc2)CC1 has an IC50 [1] of 24.5 nM, an IC50 [2] of 28 nM and an IC50 [3] of 27.6 nM. For the same compound, the IC50 [4] was 20.6 nM, the IC50 [5] was less than 9.49 nM and the viability, T/C [6] was 74.4%. For the same compound, the viability, T/C [7] was 45%, the viability, T/C [8] was 16.9% and the viability, T/C [9] was 9.63%. It also gave a viability, T/C [10] of 6.43%, a viability, T/C [11] of 4.54% and a viability, T/C [12] of 75.9%. The viability, T/C [13] was 48.4%, the viability, T/C [14] was 17.9% and the viability, T/C [15] was 8.22%. It also gave a viability, T/C [16] of 6.34%, a viability, T/C [17] of 4.71% and a viability, T/C [18] of 66%. For the same compound, the viability, T/C [19] was 48.9%, the viability, T/C [20] was 14.8% and the viability, T/C [21] was 9.7%. It also gave a viability, T/C [22] of 7.19%, a viability, T/C [23] of 4.84% and a viability, T/C [24] of 69.5%. It also gave a viability, T/C [25] of 40.7%, a viability, T/C [26] of 16.4% and a viability, T/C [27] of 8.71%. It also gave a viability, T/C [28] of 6.1%, a viability, T/C [29] of 4.26% and a viability, T/C [30] of 46.8%. The viability, T/C [31] was 27%, the viability, T/C [32] was 11.4% and the viability, T/C [33] was 5.55%. For the same compound, the viability, T/C [34] was 4.09% and the viability, T/C [35] was 3.17%.
With `O=C(C=Cc1cccc(S(=O)(=O)Nc2ccccc2)c1)NO` the viability, T/C (compound 0.00949 µM) was 80.6% and 78.8%, the viability, T/C (compound 0.03 µM) was 72.8% and 67.2% and the viability, T/C (compound 0.0949 µM) was 44.4% and 25.1%. For the same compound, the viability, T/C (compound 0.3 µM) was 17.5% and 2.5%, the viability, T/C (compound 0.949 µM) was 4.34% and 0.22% and the IC50 (curve of compound) was 75.6 nM and 52 nM.
With `CCN(c1cc(-c2ccc(CN3CCOCC3)cc2)cc(C(=O)NCc2c(C)cc(C)[nH]c2=O)c1C)C1CCOCC1` + NC1CCC(NC2CC2c2ccccc2)CC1 the IC50 [1] was greater than 3000 nM, the IC50 [2] was greater than 3000 nM and the IC50 [3] was greater than 3000 nM. The IC50 [4] was greater than 3000 nM, the IC50 [5] was greater than 3000 nM and the viability, T/C [6] was 107%. The viability, T/C [7] was 96%, the viability, T/C [8] was 100% and the viability, T/C [9] was 88.1%. For the same compound, the viability, T/C [10] was 85.5%, the viability, T/C [11] was 83% and the viability, T/C [12] was 99.7%. It also gave a viability, T/C [13] of 102%, a viability, T/C [14] of 96.7% and a viability, T/C [15] of 102%. The viability, T/C [16] was 88.6%, the viability, T/C [17] was 91.9% and the viability, T/C [18] was 87%. It also gave a viability, T/C [19] of 92.3%, a viability, T/C [20] of 95.7% and a viability, T/C [21] of 87.4%. For the same compound, the viability, T/C [22] was 86%, the viability, T/C [23] was 74.9% and the viability, T/C [24] was 86.3%. For the same compound, the viability, T/C [25] was 76.8%, the viability, T/C [26] was 97.8% and the viability, T/C [27] was 99.9%. The viability, T/C [28] was 77.4%, the viability, T/C [29] was 88.5% and the viability, T/C [30] was 67.2%. It also gave a viability, T/C [31] of 72.2%, a viability, T/C [32] of 66.8% and a viability, T/C [33] of 74.5%. The viability, T/C [34] was 75.8% and the viability, T/C [35] was 63.4%.
`COc1cc(C2c3cc4c(cc3C(OC3OC5COC(C)OC5C(O)C3O)C3COC(=O)C23)OCO4)cc(OC)c1O` (stereo not given) + NC1CC1c1ccc(-c2cccc(O)c2)cc1 was tested, and the IC50 [1] was 57.7 nM, the IC50 [2] was 50.8 nM and the IC50 [3] was 45.5 nM. It also gave an IC50 [4] of 47.2 nM, an IC50 [5] of 21 nM and a viability, T/C [6] of 88.3%. It also gave a viability, T/C [7] of 79.1%, a viability, T/C [8] of 27.5% and a viability, T/C [9] of 13%. It also gave a viability, T/C [10] of 7.49%, a viability, T/C [11] of 3.87% and a viability, T/C [12] of 107%. It also gave a viability, T/C [13] of 69.9%, a viability, T/C [14] of 26% and a viability, T/C [15] of 11.5%. The viability, T/C [16] was 7.32%, the viability, T/C [17] was 3.63% and the viability, T/C [18] was 90%. For the same compound, the viability, T/C [19] was 64.2%, the viability, T/C [20] was 24.7% and the viability, T/C [21] was 11.3%. For the same compound, the viability, T/C [22] was 6.82%, the viability, T/C [23] was 3.4% and the viability, T/C [24] was 89.8%. For the same compound, the viability, T/C [25] was 68.7%, the viability, T/C [26] was 21% and the viability, T/C [27] was 11%. It also gave a viability, T/C [28] of 6.58%, a viability, T/C [29] of 3.35% and a viability, T/C [30] of 68.2%. For the same compound, the viability, T/C [31] was 42.8%, the viability, T/C [32] was 15.8% and the viability, T/C [33] was 14.5%. It also gave a viability, T/C [34] of 8.05% and a viability, T/C [35] of 3.42%.
